Assays:
macrophages [1] = assay: Inhibiting effect on iNOS production by NF-kB inhibitor (NO2^- concentration in macrophages); assay type: cell-based, mice
Procedure: (§1) The amount of NO production from macrophages was measured by Griess reaction by quantitizing nitrite (NO2^−), oxides of NO, accumulated on the broth. That is, 100 μL of Griess reagents in which 0.1% naphthylethylene diaminedihydrochloride and 1% sulfanilamide is mixed at the same amount and 100 μL of culture media was mixed, and after 10 minutes, absorbance was measured at 540 nm by ELISA reader. Standard curve using sodium nitrite as standard substance was drawn and the concentration of NO was determined from the absorbance.
Hereupon, macrophages were treated with recombinant IFN-γ (rIFN-γ) and liquids (1 mg/mL) of Example 1 followed by treatment with pyrrolidine dithiocarbamnate (PDTC) and N^α-Tosyl-phenylalanyl chloromethyl ketone (TPCK), which are NF-kB inhitors, respectively and the change of concentration of NO2^− was observed together with control group. The results are shown in the hereinbelow Table 1 [Inhibitory effect on iNOS production by NF-kB inhibitor].

macrophages [2] = assay: Inhibitory effect of N^GMMA on NO production induced by liquids of Example 1 in macrophages; assay type: cell-based, mice; conditions: macrophages with liquids (1 mg/mL) of Example 1 and IFN-γ; FIG. 3
Procedure: as §1
To investigate if iNOS production from macrophages by the composition of the present invention is included in L-arginine-dependent process, the macrophages were treated liquids (1 mg/mL) of Example 1 in the presence of IFN-γ and NGMMA, the competitive inhibitor of NO production, and the amount of NO production was measured by the same method as Experiment 2.

S=C(S)N1CCCC1 [PDTC, pyrrolidine dithiocarbamnate]
Concentration of NO2^- (macrophages [1]; rIFN-γ (10 U/mL) + Liquids of Example 1 (1 mg/mL) + PDTC (100 μM)): 10.5 ± 2.8

CNC(=N)NCCC[C@H](N)C(=O)O [N^GMMA, N^G-monomethyl-L-arginine]
amount of NO production as the amount of N^GMMA increases (macrophages [2]): tendency to decrease

B1: rIFN-γ: recombinant IFN-γ (rIFN-γ), used at 10 U/mL (protein, UniProt P01579 24-161, looked up)
Interferon gamma: QDPYVKEAENLKKYFNAGHSDVADNGTLFLGILKNWKEESDRKIMQSQIVSFYFKLFKNFKDDQSIQKSVETIKEDMNVKFFNSNKKKRDDFEKLTNYSVTDLNVQRKAIHELIQVMAELSPAAKTGKRKRSQMLFRG
Concentration of NO2^- (macrophages [1]; rIFN-γ (10 U/mL) only): 32 ± 3.2

Source: US7118767B2, “Pharmaceutical composition for increasing the production of nitric oxide and IFN-γ, and process for preparation thereof” (Jakwang Co., Ltd., priority 2001, dated 2006)
